# Results as given in patent US11680056B2, “MK2 inhibitors and uses thereof” (Xinthera, Inc., priority 2021, dated 2023).
# Where two headings read alike, the source gives them in different places.
# Assays:
# [1] = molecular target: p38a/PRAK (Homo sapiens (Human), UniProt Q16539); assay: p38a/PRAK biochemical assay: activation of PRAK by p38, FITC-HSP27 peptide phosphorylation (IMAP FP); details: 10-point 1:3 dilution, top dose 300 μM; 60 pM active p38a, 1 nM inactive PRAK, 10 μM ATP, 2 h incubation; read-out: p38a/PRAK Enzyme pIC50 (converted)
# Chain of p38a/PRAK (Q16539 whole entry, the tested form may be a part): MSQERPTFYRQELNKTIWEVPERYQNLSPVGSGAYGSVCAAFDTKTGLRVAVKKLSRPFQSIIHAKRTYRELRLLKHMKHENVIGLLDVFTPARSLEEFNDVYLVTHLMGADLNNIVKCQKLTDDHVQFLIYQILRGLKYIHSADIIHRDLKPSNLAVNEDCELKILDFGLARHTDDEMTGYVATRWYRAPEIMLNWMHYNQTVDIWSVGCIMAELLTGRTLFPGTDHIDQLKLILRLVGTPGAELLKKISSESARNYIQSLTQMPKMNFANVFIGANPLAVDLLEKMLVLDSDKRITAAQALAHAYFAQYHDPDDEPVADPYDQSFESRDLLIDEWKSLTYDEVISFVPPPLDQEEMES
# Procedure: (§1) Expression vectors of the recombinant MK2 and PRAK kinases were constructed by cloning of the codon optimized gene sequences of MK2 (Uniprot ID P49137, amino acid fragment F46-H400), or PRAK (Uniprot ID Q81W41, amino acid fragment M1-Q471) into pGEX-4T1 (GE) for over expression of these kinases with N-terminal GST-tag. Protein expression was carried out in E. coli BL21 by growing the hosts in TB medium, induction of protein expression with 0.5 mM IPTG at approximate 0.8 OD600, and incubation of the cultures at 18° C. for 14-20 hours afterwards. The harvested cells were resuspended in […] of Lysis buffer (50 mM Tris-HCl, pH 8.0, 500 mM NaCl, 1 mM DTT, 5% glycerol, and 1 mM PMSF) per gram of wet cell mass and homogenized at 4° C. in a microfluidizer (ATS, Suzhou, China) at 14,000 psi pressure, 3 passes. The cell lysates were clarified by centrifugation and the supernatants containing the GST-fusion proteins were purified by affinity chromatography using GSH-Sepharose (GE) gravity flow columns pre-equilibrated in Buffer A (50 mM Tris-HCl, pH 8.0, 500 mM NaCl, 1 mM DTT, and 5% glycerol). After thorough washing of the columns with Buffer A, the bound GST-proteins were eluted by Buffer B (50 mM Tris, pH 8.0, 500 mM NaCl, 1 mM DTT, 5% glycerol, 10 mM glutathione), followed by size-exclusion purification on Superdex 200 column equilibrated in Buffer A. The purified proteins were concentrated to approximately 1 mg/ml and stored at −80° C.
# (§2) This study evaluates the inhibitory potency of invention compound on p38/MK2 pathway vs p38/PRAK pathway. More specially the compound concentration (IC50) was determined that inhibited half of the maximal activation of MK2 or PRAK by p38. MK2 activation study was set up without or with a serial of 10-point 1:3 dilution of invention compound at top dose of 1 or 1 μM, and PRAK activation study was set up without or with a serial of 10-point 1:3 dilution of invention compound at top dose of 300 μM. The MK2 and PRAK activity were determined by the phosphorylation level of HSP27 peptide conjugated with FITC.
# (§3) After 2 h incubation of the reaction mixture with various concentration of invention compound (200 nL), 60 μL 1×IMAP solution Mixture (Molecular Devices, Cat R8127) was added to the reaction mixture and incubated for another half hour. The signal was then read by Synergy™ Neo2 Multi-Mode Microplate Reader with filter setting (Ex/Em=485 nm/FITC FP-P pol 528 nm & FITC FP-S pol 528 nm)
# (§4) The signal was then normalized to vehicle control and fitted in Xfit to generate IC50. The selectivity of MK2 over PRAK was calculated by the formular Selectivity=IC50 of PRAK/IC50 of MK2.
# [2] = molecular target: p38a/MK2 (Homo sapiens (Human), UniProt P49137+Q16539); assay: p38a/MK2 biochemical assay: activation of MK2 by p38, FITC-HSP27 peptide phosphorylation (IMAP FP); details: 10-point 1:3 dilution, 60 pM active p38a, 1 nM inactive MK2, 10 μM ATP, 2 h incubation
# Chain of p38a/MK2 (P49137 46-400): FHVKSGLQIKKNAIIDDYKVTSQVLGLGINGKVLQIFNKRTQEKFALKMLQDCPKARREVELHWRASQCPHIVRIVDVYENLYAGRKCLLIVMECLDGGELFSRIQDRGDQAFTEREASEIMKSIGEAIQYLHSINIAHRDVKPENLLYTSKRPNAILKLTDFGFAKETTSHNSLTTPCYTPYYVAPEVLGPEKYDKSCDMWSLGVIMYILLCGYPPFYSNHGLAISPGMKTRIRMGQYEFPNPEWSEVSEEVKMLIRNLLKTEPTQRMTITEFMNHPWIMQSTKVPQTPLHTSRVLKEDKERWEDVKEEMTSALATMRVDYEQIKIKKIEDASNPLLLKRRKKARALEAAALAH
# Chain of p38a/MK2 (Q16539 whole entry): as the sequence (Q16539 whole entry, the tested form may be a part) above
# Procedure: as §1
# as §2, with “1:[…],” for “1:3 dilution of invention compound at top dose of 1 or 1 μM,”
# as §3, §4
# [3] = top dose 10 μM, read-out: p38a/MK2 (10 μM) Enzyme pIC50 (converted)
# [4] = top dose 1 μM, read-out: p38a/MK2 (1 μM) Enzyme pIC50 (converted)
SMILES,IC50 [1],"IC50 [2, 3]","IC50 [2, 4]"
"Cc1cnc(-c2ccnc(C(C)(C)O)n2)cc1-n1c(C)cc(OCc2cc(C(F)F)ccn2)c(Cl)c1=O (single isomer, unassigned) [Example 27A, rel-3-chloro-4-{[4-(difluoromethyl)pyridin-2-yl]methoxy}-2′-[2-(2-hydroxypropan-2-yl)pyrimidin-4-yl]-5′,6-dimethyl-[1,4′-bipyridin]-2-one]",126 µM,63.1 nM,
"Cc1cnc(-c2ccn(C(C)(C)CO)n2)cc1-n1c(C)cc(OCc2ncc(F)cc2F)c(Cl)c1=O (single isomer, unassigned) [Example 25A, rel-3-chloro-4-[(3,5-difluoropyridin-2-yl)methoxy]-2′-[1-(1-hydroxy-2-methylpropan-2-yl)pyrazol-3-yl]-5′,6-dimethyl-[1,4′-bipyridin]-2-one]",3.16 µM,31.6 nM,
"Cc1cnc(-c2ccnc(C(C)(C)O)c2)cc1-n1c(C)cc(OCc2ncc(F)cc2F)c(Cl)c1=O (single isomer, unassigned) [Example 38B, rel-3-chloro-4-[(3,5-difluoropyridin-2-yl)methoxy]-2′-[2-(2-hydroxypropan-2-yl)pyridin-4-yl]-5′,6-dimethyl-[1,4′-bipyridin]-2-one]",> 316 µM,,> 1000 nM
"Cc1cnc(-n2nc(C(C)(C)O)cc2C2CC2)cc1-n1c(C)cc(OCc2ncc(F)cc2F)c(Cl)c1=O (single isomer, unassigned) [Example 20A, rel-3-chloro-2′-[5-cyclopropyl-3-(2-hydroxypropan-2-yl)pyrazol-1-yl]-4-[(3,5-difluoropyridin-2-yl)methoxy]-5′,6-dimethyl-[1,4′-bipyridin]-2-one]",5.01 µM,,
"Cc1cnc(-c2ccc(F)c(C(C)(C)O)n2)cc1-n1c(C)cc(OCc2ncc(F)cc2F)c(Cl)c1=O (single isomer, unassigned) [Example 24A, rel-3-chloro-4-[(3,5-difluoropyridin-2-yl)methoxy]-1-[5′-fluoro-6′-(2-hydroxypropan-2-yl)-5-methyl-[2,2′-bipyridin]-4-yl]-6-methylpyridin-2-one]",6.31 µM,,1.58 nM
"Cc1cnc(-c2cccc(C(C)(C)O)n2)c(F)c1-n1c(C)cc(OCc2ncc(F)cc2F)c(Cl)c1=O (single isomer, unassigned) [Example 63B, rel-3-chloro-4-[(3,5-difluoropyridin-2-yl)methoxy]-1-[3-fluoro-6′-(2-hydroxypropan-2-yl)-5-methyl-[2,2′-bipyridin]-4-yl]-6-methylpyridin-2-one]",0.316 µM,,0.316 nM
"Cc1cnc(-c2cncc(C(C)(C)O)n2)cc1-n1c(C)cc(OCc2ncc(F)cc2F)c(Cl)c1=O (single isomer, unassigned) [Example 51A, rel-3-chloro-4-[(3,5-difluoropyridin-2-yl)methoxy]-2′-[6-(2-hydroxypropan-2-yl)pyrazin-2-yl]-5′,6-dimethyl-[1,4′-bipyridin]-2-one]",5.01 µM,,79.4 nM
"Cc1cnc(-n2ccc(C(C)(C)CO)n2)cc1-n1c(C)cc(OCc2ncc(F)cc2F)c(Cl)c1=O (single isomer, unassigned) [Example 37A, rel-3-chloro-4-[(3,5-difluoropyridin-2-yl)methoxy]-2′-[3-(1-hydroxy-2-methylpropan-2-yl)pyrazol-1-yl]-5′,6-dimethyl-[1,4′-bipyridin]-2-one]",2.51 µM,,5.01 nM
"Cc1cnc(-c2ccnc(C(C)(C)O)c2F)cc1-n1c(C)cc(OCc2ncc(F)cc2F)c(Cl)c1=O (atropisomer, axis not shown) [Example 56B, 3-chloro-4-[(3,5-difluoropyridin-2-yl)methoxy]-1-[3′-fluoro-2′-(2-hydroxypropan-2-yl)-5-methyl-[2,4′-bipyridin]-4-yl]-6-methylpyridin-2-one]",> 316 µM,,> 1000 nM
"Cc1c(-n2c(C)cc(OCc3ncc(F)cc3F)c(Cl)c2=O)ccnc1-n1ccc(C(C)(C)O)n1 (single isomer, unassigned) [Example 52A, rel-3-chloro-4-((3,5-difluoropyridin-2-yl)methoxy)-2′-(3-(2-hydroxypropan-2-yl)-1H-pyrazol-1-yl)-3′,6-dimethyl-2H-[1,4′-bipyridin]-2-one]",> 316 µM,,> 1000 nM
"[2H]C([2H])(Oc1cc(C)n(-c2c(C)cnc(-c3ccnc(C(O)(C([2H])([2H])[2H])C([2H])([2H])[2H])n3)c2F)c(=O)c1Cl)c1ncc(F)cc1F (single isomer, unassigned) [Example 67B, rel-3-chloro-4-((3,5-difluoropyridin-2-yl)methoxy-d2)-3′-fluoro-2′-(2-(2-hydroxypropan-2-yl-1,1,1,3,3,3-d6)pyrimidin-4-yl)-5′,6-dimethyl-2H-[1,4′-bipyridin]-2-one]",31.6 µM,,79.4 nM
"[2H]C([2H])([2H])C(O)(c1nccc(-c2ncc(C)c(-n3c(C)cc(OCc4ncc(F)cc4F)c(Cl)c3=O)c2F)n1)C([2H])([2H])[2H] (single isomer, unassigned) [Example 66B, rel-3-chloro-4-((3,5-difluoropyridin-2-yl)methoxy)-3′-fluoro-2′-(2-(2-hydroxypropan-2-yl-1,1,1,3,3,3-d6)pyrimidin-4-yl)-5′,6-dimethyl-2H-[1,4′-bipyridin]-2-one]",1 µM,,6.31 nM
"Cc1cnnc(COc2cc(C)n(-c3cc(-c4ccnc(C(C)(C)O)n4)ncc3C)c(=O)c2Cl)c1 (single isomer, unassigned) [Example 28B, rel-3-chloro-2′-[2-(2-hydroxypropan-2-yl)pyrimidin-4-yl]-5′,6-dimethyl-4-[(5-methylpyridazin-3-yl)methoxy]-[1,4′-bipyridin]-2-one]",> 316 µM,,
"Cc1cnc(-n2nc(C(C)(C)O)cc2C2CC2)cc1-n1c(C)cc(OCc2ncc(F)cc2F)c(Cl)c1=O (single isomer, unassigned) [Example 20B, rel-3-chloro-2′-[5-cyclopropyl-3-(2-hydroxypropan-2-yl)pyrazol-1-yl]-4-[(3,5-difluoropyridin-2-yl)methoxy]-5′,6-dimethyl-[1,4′-bipyridin]-2-one]",> 316 µM,,
"Cc1cnc(-n2nc(C(C)(C)O)cc2C)cc1-n1c(C)cc(OCc2ncc(F)cc2F)c(Cl)c1=O (single isomer, unassigned) [Example 19B, rel-3-chloro-4-((3,5-difluoropyridin-2-yl)methoxy)-2′-(3-(2-hydroxypropan-2-yl)-5-methyl-1H-pyrazol-1-yl)-5′,6-dimethyl-2H-[1,4′-bipyridin]-2-one]",> 316 µM,,
"Cc1cnc(-n2nc(C(C)(C)O)cc2C)cc1-n1c(C)cc(OCc2ncc(F)cc2F)c(Cl)c1=O (single isomer, unassigned) [Example 19A, rel-3-chloro-4-((3,5-difluoropyridin-2-yl)methoxy)-2′-(3-(2-hydroxypropan-2-yl)-5-methyl-1H-pyrazol-1-yl)-5′,6-dimethyl-2H-[1,4′-bipyridin]-2-one]",5.01 µM,,
"Cc1nn(-c2ccnc(C(C)(C)O)n2)cc1-n1c(C)cc(OCc2ncc(F)cc2F)c(Cl)c1=O [Example 30, 3-chloro-4-[(3,5-difluoropyridin-2-yl)methoxy]-1-{1-[2-(2-hydroxypropan-2-yl)pyrimidin-4-yl]-3-methylpyrazol-4-yl}-6-methylpyridin-2-one]",25.1 µM,,
